From paper PMC9865645, “The Impact of N^ε-Acryloyllysine Piperazides on the Conformational Dynamics of Transglutaminase 2” (International Journal of Molecular Sciences, 2023)

Molecular target: T1, self-produced hTGase 2 (Homo sapiens, UniProt P21980)
T1 construct: thrombin cleavage site (N); made in house; host or cells: E. coli BL21(DE3)
T1 sequence (P21980 1-687): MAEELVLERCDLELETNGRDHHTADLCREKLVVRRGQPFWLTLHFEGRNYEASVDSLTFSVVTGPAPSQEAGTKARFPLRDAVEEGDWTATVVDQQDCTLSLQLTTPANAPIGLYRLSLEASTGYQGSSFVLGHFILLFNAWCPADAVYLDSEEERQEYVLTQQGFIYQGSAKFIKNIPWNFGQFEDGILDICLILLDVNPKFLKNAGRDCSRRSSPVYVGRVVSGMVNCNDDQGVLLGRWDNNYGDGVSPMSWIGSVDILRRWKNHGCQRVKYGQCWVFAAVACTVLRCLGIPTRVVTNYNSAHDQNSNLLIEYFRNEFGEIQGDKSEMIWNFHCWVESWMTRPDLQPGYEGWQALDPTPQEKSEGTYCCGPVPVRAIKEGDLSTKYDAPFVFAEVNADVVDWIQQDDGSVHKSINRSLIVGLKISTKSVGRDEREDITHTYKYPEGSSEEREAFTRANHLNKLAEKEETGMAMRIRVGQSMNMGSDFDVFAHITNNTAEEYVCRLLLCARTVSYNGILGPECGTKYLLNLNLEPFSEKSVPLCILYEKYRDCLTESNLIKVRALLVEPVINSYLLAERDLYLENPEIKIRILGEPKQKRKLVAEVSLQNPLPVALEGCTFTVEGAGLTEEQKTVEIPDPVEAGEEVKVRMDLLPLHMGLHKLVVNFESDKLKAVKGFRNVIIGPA
Test: native (GTP-)PAGE: conformational species of hTGase 2
Conditions: pre-incubation with 500 µM GTPγS
Protocol: Figure 7 Influence of inhibitors 1–3 on the activity and conformation of hTGase 2 in the absence and presence of Ca^2+ or/and GTPγS. Native (GTP-)PAGE was performed on 7% separating gels. The gel and the running buffer contained either no GTP (A) or 50 µM GTP (B). Samples of 8.23 µM self-produced hTGase 2 were incubated for 30 min at 20 °C in 100 mM MOPS pH 8.0, 100 mM NaCl, 5.33% (v/v) glycerol with CaCl2, DMSO or inhibitors 1–3 (2.12% DMSO), and GTPγS as indicated. After adding native loading buffer, 6 µL of each sample containing 3 µg of hTGase 2 was loaded onto the gel. After the electrophoretic separation, gels were stained with Coomassie Brilliant Blue G250, scanned, and the protein bands were quantified (Figure S6 in Supplementary Materials). […]
Sodium dodecyl sulfate-PAGE (SDS-PAGE) and native PAGE were performed on 4% stacking and 7% separating gels using Laemmli buffers (60 min with 120 V, 300 mA and 30 W at room temperature) and the same buffers without SDS (80 min with 120 V, 50 mA and 30 W at 4 °C), respectively. […] Afterward, the gels were scanned using a LI-COR Odyssey Fc Imager (700 channel) and analyzed using Image Studio software version 5.2.5. Detected bands were quantified based on the general procedure published by Wagstaff et al. and as detailed in legends to Figures S5 and S6. […]

In the case of `Nc1nc2c(ncn2[C@@H]2O[C@H](COP(=O)(O)OP(=O)(O)OP(O)(O)=S)[C@@H](O)[C@H]2O)c(=O)[nH]1` [GTPγS], the “effect on migrating hTGase 2 species” value was “favors the fast migrating hTGase 2 species”.
